MIC and Ratio data for 3 molecules are collected here from ChEMBL document CHEMBL3751701, “Class I and Class II Lanthipeptides Produced by Bacillus spp” (2015).

In brackets after ≈: the same amount, converted by molar mass.

One experiment deals with Bacillus cereus. Description: Antibacterial activity against Bacillus cereus UW85 after 120 mins by agar well diffusion method. Conditions: UW85, 2 h. Format: functional. On the technique in general: In agar diffusion tests the substance spreads into inoculated agar from a disc or well.
The next experiment deals with Bacillus firmus. Description: Antibacterial activity against Bacillus firmus BCRC 11944 after 120 mins by agar well diffusion method. Conditions: Cytobacillus firmus, BCRC 11944, 2 h. Format: functional.
The subject of experiment [1] is Bacillus subtilis. Kind of experiment: Antibacterial activity against Bacillus subtilis 168 after 120 mins by agar well diffusion method. Format: functional. Conditions: subsp. subtilis str. 168, 2 h.
In experiment [2] the test system is Bacillus subtilis. Description: Antibacterial activity against Bacillus subtilis BSn5 after 120 mins by agar well diffusion method. Format: functional. Conditions: BSn5, 2 h.
Experiment [3] has as its system Bacillus thuringiensis. Kind of experiment: Antibacterial activity against Bacillus thuringiensis BMB171 after 120 mins by agar well diffusion method. Format: functional. To be noted: BMB171, 2 h.
The subject of experiment [4] is Bacillus thuringiensis. Kind of experiment: Antibacterial activity against Bacillus thuringiensis YBT-1518 after 120 mins by agar well diffusion method. Conditions: YBT-1518, 2 h. Format: functional.
In another experiment the test system is Bacillus pumilus. Description: Antibacterial activity against Bacillus pumilus SCG I after 120 mins by agar well diffusion method. Conditions: 2 h. Format: functional.
Experiment [5] concerns Enterococcus faecalis. Kind of experiment: Antibacterial activity against Enterococcus faecalis Bom3 after 120 mins by agar well diffusion method. Format: functional. Conditions: Bom3, 2 h.
A further experiment deals with Microbacterium. Description: Antibacterial activity against Microbacterium Pri2 after 120 mins by agar well diffusion method. Format: functional. Conditions: Pri2, 2 h.
The test system of a further experiment is Staphylococcus sciuri. Kind of experiment: Antibacterial activity against Staphylococcus sciuri Bom1 after 120 mins by agar well diffusion method. Conditions: Bom1, 2 h.
Experiment [6] concerns Enterococcus faecium. Description: Antibacterial activity against Enterococcus faecium ATCC 19579 after 18 to 20 hrs by agar well diffusion method. Format: functional.
The test system of experiment [7] is Enterococcus faecium. Description: Antibacterial activity against vancomycin-resistant Enterococcus faecium 7131121 after 18 to 20 hrs by agar well diffusion method. Format: functional.
Experiment [8] concerns Enterococcus faecalis. Kind of experiment: Antibacterial activity against Enterococcus faecalis ATCC 29212 after 18 to 20 hrs by agar well diffusion method. Format: functional.
The subject of experiment [9] is Micrococcus luteus. Kind of experiment: Antibacterial activity against Micrococcus luteus ATCC 4698 after 18 to 20 hrs by agar well diffusion method. Format: functional. Conditions: NCTC 2665.
In experiment [10] the test system is Staphylococcus epidermidis. Kind of experiment: Antibacterial activity against Staphylococcus epidermidis NCTC 11047 after 18 to 20 hrs by agar well diffusion method. Format: functional.
In experiment [11] the test system is Staphylococcus aureus. Kind of experiment: Antibacterial activity against Staphylococcus aureus SH1000 after 18 to 20 hrs by agar well diffusion method. Format: functional.
The subject of experiment [12] is Staphylococcus aureus. Description: Antibacterial activity against methicillin-resistant Staphylococcus aureus R33 after 18 to 20 hrs by agar well diffusion method. Format: functional.
The subject of experiment [13] is Staphylococcus aureus. Kind of experiment: Antibacterial activity against Staphylococcus aureus SG511 after 18 hrs by broth microdilution method. To be noted: SG511, 18 h. Format: functional. (Broth dilution looks for growth in wells or tubes with falling amounts of substance.)
Experiment [14] deals with Staphylococcus aureus. Kind of experiment: Antibacterial activity against Staphylococcus aureus 137/93A after 18 hrs by broth microdilution method. Format: functional.
The test system of experiment [15] is Staphylococcus aureus. Kind of experiment: Antibacterial activity against Staphylococcus aureus 137/93G after 18 hrs by broth microdilution method. Format: functional.
The next experiment deals with Streptococcus pneumoniae. Kind of experiment: Antibacterial activity against Streptococcus pneumoniae BAA-255 after 18 to 20 hrs by agar well diffusion method. Format: functional.
Experiment [16] relates to Staphylococcus aureus. Kind of experiment: Ratio of MIC for Staphylococcus aureus 137/93A to MIC for Staphylococcus aureus SG511. Format: functional.
The nature of experiment [17]: Ratio of MIC for Enterococcus faecalis ATCC 29212 to MIC for Enterococcus faecium ATCC 19579. Format: functional.
The subject of a further experiment is Lactococcus lactis. Kind of experiment: Antibacterial activity against Lactococcus lactis MG1614 by agar diffusion assay. Format: functional.
The subject of experiment [18] is Micrococcus luteus. Description: Antibacterial activity against Micrococcus luteus […] 8166 by agar diffusion assay. Format: functional.

For orientation: MIC means the least concentration at which growth counts as inhibited. A low value points to a more susceptible organism. As to `C=C1NC(=O)[C@@H]2CSC(C)C(NC(=O)[C@@H]3CSC(C)C4NC(=O)CNC(=O)C(NC(=O)[C@H](CCCCN)NC(=O)[C@@H]5CSC[C@H](NC(=O)[C@@H](NC(=O)[C@H](CCCCN)NC(=O)[C@@H](NC(=O)[C@@H](NC(=O)/C(=C/C)NC(=O)/C(=C\C)NC(=O)[C@H](Cc6c[nH]c7ccccc67)NC(=O)C(=O)CC)[C@@H](C)CC)C(C)C)C(C)C)C(=O)N[C@@H](CCCCN)C(=O)N[C@@H](C)C(=O)N[C@@H](C(C)C)C(=O)N5)C(C)SC[C@H](NC4=O)C(=O)N[C@@H]([C@@H](C)CC)C(=O)N3)C(=O)N/C(=C\C)C(=O)N[C@@H](CSC[C@@H](C(=O)N[C@@H](CCCCN)C(=O)O)NC(=O)[C@H](CC(N)=O)NC1=O)C(=O)N2` (stereo not given in full), the MIC was 7.8 µM (≈ 21.7 µg/mL) against Bacillus cereus; 0.326 µM (≈ 0.909 µg/mL) in the experiment with Bacillus firmus; 5.2 µM (≈ 14.5 µg/mL) with Bacillus subtilis [1]; 5.2 µM (≈ 14.5 µg/mL) with Bacillus subtilis [2]; 1.3 µM (≈ 3.62 µg/mL) with Bacillus thuringiensis [3]; 1.3 µM (≈ 3.62 µg/mL) against Bacillus thuringiensis [4]. The MIC against Bacillus pumilus is 0.65 µM (≈ 1.81 µg/mL); in the experiment on Enterococcus faecalis [5], 2.6 µM (≈ 7.25 µg/mL); against Microbacterium, 5.2 µM (≈ 14.5 µg/mL); in the experiment on Staphylococcus sciuri it was 1.95 µM (≈ 5.44 µg/mL).

As to `C=C1NC(=O)C2NC(=O)[C@H](CC(C)C)NC(=O)C(NC(=O)[C@@H]3CSC(C)[C@H](NC(=O)[C@H](Cc4ccccc4)NC(=O)C4NC(=O)[C@@H](N)CSC4C)C(=O)N[C@@H](CC(C)C)C(=O)N4CCC[C@H]4C(=O)NCC(=O)NCC(=O)NCC(=O)NCC(=O)N[C@@H](C(C)C)C(=O)N3)C(C)SC[C@@H](NC(=O)[C@H](CCC(=O)O)NC1=O)C(=O)N[C@@H]([C@H](C)CC)C(=O)N/C=C/SC2C` (stereo not given in full), the MIC in the experiment with Enterococcus faecium [6] turned out to be 17.5 µM (≈ 32 µg/mL); with Enterococcus faecium [7], 35.1 µM (≈ 64 µg/mL); in the experiment on Enterococcus faecalis [8] it was 35.1 µM (≈ 64 µg/mL); in the experiment with Micrococcus luteus [9] it was 0.657 µM (≈ 1.2 µg/mL); in [10], 8.94 µM (≈ 16.3 µg/mL); against Staphylococcus aureus [11], 17.5 µM (≈ 32 µg/mL). Besides, the minimal inhibitory concentration (MIC) in the experiment on Staphylococcus aureus [12] came to 17.5 µM (≈ 32 µg/mL); against Staphylococcus aureus [13], 0.548 µM (≈ 1 µg/mL); in the experiment on Staphylococcus aureus [14], 19.2 µM (≈ 35 µg/mL); with Staphylococcus aureus [15], 16.4 µM (≈ 30 µg/mL); in the experiment on Streptococcus pneumoniae it was 1.1 µM (≈ 2 µg/mL). In addition, the Ratio in the experiment on Staphylococcus aureus [16] was found to be 35; in experiment [17], 2.

Turning to `C=C(NC(=O)[C@@H](NC(=O)[C@H](CCCCN)NC(=O)[C@H]1CSC(C)C2NC(=O)[C@H](CC(C)C)NC(=O)C(NC(=O)[C@@H](CCC(N)=O)NC(=O)[C@@H](CC(C)C)NC(=O)[C@@H](Cc3ccccc3)NC(=O)[C@H]3CSC(C)C(NC(=O)[C@@H](NC(=O)[C@H]4CSC(C)C(NC(=O)[C@H]5CSC[C@@H](NC(=O)[C@@H](CCCCN)NC(=O)[C@H](Cc6c[nH]c7ccccc67)NC(=O)CCC(=O)O)C(=O)N[C@H](CCC(=O)O)C(=O)NC(=C)C(=O)N[C@H](CC(C)C)C(=O)N5)C(=O)N5CCC[C@H]5C(=O)NCC(=O)N4)C(C)C)C(=O)NCC(=O)N[C@H](C)C(=O)N[C@H](CC(C)C)C(=O)N[C@H](CCC(N)=O)C(=O)N/C(=C\C)C(=O)N3)C(C)SC[C@H](NC2=O)C(=O)N[C@@H](CC(N)=O)C(=O)N1)[C@@H](C)CC)C(=O)N[C@H](CCCCN)C(=O)O` (stereo not given in full), the MIC worked out at 5.55 µM (≈ 19 µg/mL) in the experiment with Lactococcus lactis and 0.0994 µM (≈ 0.34 µg/mL) in the experiment with Micrococcus luteus [18].
